Data reported in paper PMC7363885, “Fluorescent artificial receptor-based membrane assay (FARMA) for spatiotemporally resolved monitoring of biomembrane permeability” (Communications Biology, 2020).
“Also recorded” adds a separate entry of the source. Read-outs that look alike come from different tables or passages of the source.

Assays:
[1] = FARMA: permeation of analytes into FAR-loaded liposomes (fluorescence, cuvette or stopped-flow); conditions: for membrane permeability (in words): FARMA with FAR-loaded liposomes or GUVs
Description: Elementary physical parameters, such as permeability coefficients, can be extracted from the full kinetic FARMA data. This kinetic profile → parameter mapping requires some assumptions to be made in regard to the permeation mechanism. We applied a reported permeation model for liposomes[31] to arrive at permeation rate constants (kp) and apparent permeability coefficients (Papp). The derivation of the mathematical relation (1), linking the fundamental permeability rate constant and permeability coefficient to experimental measurable kobs rate constants, the known total analyte and total FAR concentration, and the experimentally determined liposome radius (r), is shown in the Supplementary Information.1 Papp=kp⋅r/3=kobs/canalyte⋅cFAR⋅r/3 […]
The volume-to-surface correction factor r/3 accounts for the fact that the observed rates depend on the size, i.e., radius r, of the liposomal assembly. […] The initial-rate method can also be applied, see the Supplementary Information. Moreover, kobs/canalyte can be estimated by single-point measurements at selected canalyte concentration.
A solution of 2.5 mg/mL of POPC and 0.33 mg/mL of POPS in chloroform was purged with nitrogen and dried overnight under […] vacuum. […] The resulting FAR-loaded liposomes were separated from non-encapsulated species by size-exclusion chromatography (NAP-25 column), while maintaining the same buffer. The absence of non-encapsulated FAR was confirmed by adding a non-membrane-permeable species such as tryptophan to a fluorescence cuvette containing 25 µL of liposomes diluted in 1 mL HEPES (10 mM) buffer. Complete removal of non-encapsulated FAR is indicated by the absence of a significant fluorescence change upon Trp addition.
In a typical experiment, 20 µL of liposome solution loaded with FAR was diluted in 1 mL HEPES buffer (10 mM, pH 7.0) in a 1 mL quartz cuvette. An emission spectrum was recorded after 10 min of “equilibration time” on a Varian Eclipse spectrofluorometer thermostated at 22 °C with a water bath using λexc = 400 nm for FAR-1, λexc = 310 nm for FAR-2, and λexc = 330 nm for FAR-3. In the time-resolved experiments, the emission intensity at λobs = 450 nm for FAR-1, λobs = 370 nm for FAR-2, and λobs = 370 and 500 nm for FAR-3 (the latter is the emerging excimer band for certain FAR-3•analyte complexes) was recorded with an averaging time of 0.5 s. […] For single-point experiments, a full spectrum was recorded after a fixed time or several time intervals after analyte addition. […] Only FAR-analyte combinations were used for FARMA, for which no significant autofluorescence and competitive light absorption of the analyte occurred.
For each experiment, measurements from 6 injections were accumulated and the average of these traces was used for data analysis.
Calculation of the unimolecular permeation rate constants ( kp) and of the apparent permeability coefficients (Papp).
The passive diffusion (permeation) of small non-charged compounds follows a modified Fick’s law and can be expressed by a first order kinetics.1 Similar to first order chemical reactions, the kinetics curve can therefore be fitted monoexponentially to obtained the observed permeation rates (kobs). In our assay set-up, such an exponential fit is an approximation, since it neglects that a certain fraction of transported analyte is bound to the FAR and cannot exit the liposome. Nevertheless, the fit of the kinetic curves of the […]
approximation is justified.

FAR-1 = assay: Fluorescence titration, FAR•analyte complex formation in homogeneous solution; type: binding; conditions: FAR-1; 10 mM HEPES buffer (pH 7); 1:1 binding model; error estimate ≤ 20%
Experimental: Fluorescence titrations were carried out in aqueous HEPES buffer (10 mM, pH 7, 22 °C) unless stated otherwise. To a solution of the FAR (typically at 10–30 μM) was stepwise added a solution of the analyte (typically up to 2 mM) and the fluorescence spectra were recorded. The normalized emissions at 450 nm (FAR-1) or at 370 nm (FAR-2) were fitted with an equation for a 1 : 1 binding by a least-square fit. The resulting affinity constants are reported in Supplementary Table 1. Representative titration plots are shown in Supplementary Fig. 1. Note that the high CB8-dye binding affinities correspond to a near quantitative degree of host-dye complexation, i.e., quantitative formation of the FAR, such that the subsequent binding of the analyte can be treated independently.

[2] = FARMA in DOPC:DOPS compared to POPC:POPS liposomes; type: in vitro ADME; conditions: peer review file
Description: good choice since they give different degrees of packing of lipids. If the authors further utilize the liposomes for testing membrane permeability of some of the compounds appeared in the manuscript using FARMAs composed of such different types of lipids, the results would be informative for understanding relationships between permeability of compounds and lipid structures.
The FARMA method opens indeed a door for the systematic investigation of permeability in dependence on (i) different lipids, (ii) temperature, (iii) phase transitions, and (iv) additives. These studies are under way in our laboratories but we have now emphasized some key findings in regard to the transferability of the method:
- Investigation of additives: We show in the manuscript that different lipid composition are in princi-ple possible by adding cholesterol to the POPC and POPS membrane (Fig S7), causing a noticeable alteration of the permeation kinetics of tryptamine as a model analyte.
- Different lipid compositions: We have added a statement on page 10 (bottom) pointing to the possi-bility of preparing reporter-pair loaded liposomes with different lipid POPC:POPS compositions, ranging from 8:1 to 15:1 (our GUV preparations in the manuscript) to pure POPC (ref. 20 in the main […]

[3] = Aliquot analysis/flat lipid bilayer (macroscopic bilayer of brain phospholipids); cited from earlier work
[4] = Dye displacement membrane assay (liposome-encapsulated host•dye ensembles); conditions: dye displacement, CB7•BE-, CB8•MV•5OH-Trp- or CB8•MV•2,6-ANS-loaded liposomes
Description: Supplementary Figure 13 | Graphical representation of membrane assays using dye displacement for signaling. Diffusion of analytes through a lipid membrane is detected by displacement of the dye from (a) a host•dye or (b) a host•dye•quencher complex, leading to reduction or enhancement in emission intensity.
Supplementary Figure 14 | Membrane permeation monitoring of analytes by dye displacement. (a) Time-resolved changes in fluorescence intensity of CB7•BE-loaded liposomes (λexc = 347 nm, λobs = 500 nm) upon addition of the membrane-permeable analyte tyramine and membrane destabilizing peptide melittin.
(b) Evolution of fluorescence intensity after addition of dimethylbenzylamine (DMBA) to CB7•PAL-loaded liposomes (λexc = 347 nm, λobs = 500 nm). (c) Fluorescence response after addition of the […]
tryptophan to liposomes loaded with CB8•MV•2,6-ANS (λexc = 380 nm, λobs = 463 nm). […]
Combing equations S1 and S2, one arrives at Papp = kp∙(r/3) = kobs/canalyte∙cFAR∙(r/3) (equation 1 in main text)
Dye displacement membrane assay
Dye displacement membrane assays rely on selective encapsulation of reporter pairs inside liposomes and the reversible interaction between the receptor and the translocated analyte. To conduct the assay, liposomes containing the chemosensing ensemble composed of a macrocyclic host and a dye are prepared and purified, such that a subsequently added analyte affects the dye fluorescence only if it can enter the vesicle and displaces the dye from the macrocycle. Until now, only the dye displacement has been used as the signaling mechanism for tandem membrane assays,3, 4 whereby the competitive displacement of the dye from such host•dye complexes upon analyte addition restores the fluorescence features of the dye in solution, Supplementary Figures 13 - 14.
Specifically, this signaling mechanism has been mostly employed with macrocyclic host s with cavity space that is capable o f forming 1:1 complex es, e.g., cucurbit[7]uril (CB7) and the dyes berberine (BER) or palmatine (PAL), see Supplementary Figure 13a, or with p-sulfonato calix[4]arene (CX4) and lucigenin.3,4 Expanding the repertoire of chemosensors for tandem membrane assay s, we exploit herein also the ability of a larger macrocyclic host such as cucurbit[8]uril (CB8) to form 1:1:1 ternary complexes,5-7 and utilize here the quencher methyl viologen (MV) in combination with the fluorescent dyes 5-hydroxy tryptophan (5HO-Trp), 2-anilinonaphthalene -6-sulfonic acid (2,6-ANS) or dapoxyl sulfonic acid, sodium salt (DapoxS), Supplementary Figure 13b. Upon addition of an analyte, the fluorescent dye, the quencher or both the fluorescent dye and quencher are displaced from the CB8 cavity, which in each case is reflected by an increase in the emission intensity of the dye (switch -on displacement assay), Supplementary Figures 14- […]
The dye displacement signal strategy has two important disadvantages compared to the preferred fluorescent artificial receptor (FAR) assays:
(i) The dye displacement strategy is limited to strongly binding analytes, i.e., K(analyte) ≥ K(dye), otherwise a large excess concentration of analyte is needed to generate significant

Caco-2 = conditions: no passive permeation but active transport; cited from earlier work
[5] = End-point analysis/EPC liposomes; cited from earlier work
[6] = Fluorescence quenching; cited from earlier work
[7] = PAMPA; cited from earlier work

NCCc1c[nH]c2ccc(O)cc12 [Serotonin, serotonin]
membrane permeability (in words) [1]: pass the membrane within several minutes to hours | Papp at 16 µM ([1]; not told, pH 7): 0.004 ×10⁻⁶ cm/s | Ka (FAR-1): 5 10^3 M−1 | permeation rate, factor lower for DOPC:DOPS compared to POPC:POPS liposomes [2]: 2-4 | Papp Literature [3]: 1.1 10^−6 cm s^−1

N[C@@H](Cc1c[nH]c2ccccc12)C(=O)O [Trp, tryptophan]
membrane permeability (in words) [1]: no permeation | membrane permeability (in words) ([1]; listed as tryptophan): non-permeating | Ka (FAR-1): 150 10^3 M−1 | membrane permeability (in words) [4]: impermeable | Papp Literature (Caco-2): 1.0 10^−6 cm s^−1 | Papp Literature [5]: 0.00041 ×10⁻⁶ cm/s

NCCc1c[nH]c2ccccc12 [Tryptamine, tryptamine]
membrane permeability (in words) [1]: slow permeation; also recorded: pass the membrane within several minutes to hours | Ka (FAR-1): 50 10^3 M−1 | membrane permeability (in words) [4]: slowly membrane permeable | Papp Literature [3]: 6.7 10^−6 cm s^−1 | Papp Literature [6]: 0.33 10^−6 cm s^−1 | Papp Literature [7]: 5.4 10^−6 cm s^−1
